Experimental data reported in article PMC6707612, “Cyclic-di-GMP binds to histidine kinase RavS to control RavS-RavR phosphotransfer and regulates the bacterial lifestyle transition between virulence and swimming” (PLoS Pathogens, 2019).

Assays:
[1] = target: STING; design: method as in PMID 26055114; conditions: upper end of reported range; cited from earlier work
[2] = system: DHpCA^D637A, DHp-CA^G639A, DHp-CA^D640A, DHp-CA^I653A, DHp-CA^E657A and DHp-CA^L666A; test: microscale thermophoresis (MST) binding, Ala-substituted DHp-CA proteins; design: species or system Xanthomonas campestris pv. campestris; conditions: compared with DHp-CA protein; fl-c-di-GMP used in the MST assay
Protocol: (§1) Fig 6 Arg^656 in the CA domain of RavS is a key residue for c-di-GMP binding. (a, b) c-di-GMP binds to the DHp-CA domain of RavS. PAS-A, PAS-B and DHp-CA in (a), and DHp and CA domains of RavS in (b), were purified and the interaction with c-di-GMP was measured by MST. Each assay was repeated three times. Standard deviations are shown. (c) Molecular docking model of the interaction between c-di-GMP and DHp-CA of RavS. c-di-GMP is shown as a ball-and-stick model and DHp-CA is shown in ribbon representation. (d) Schematic view of the predicted docking site between c-di-GMP and DHp-CA. Potential hydrogen bonds are indicated as blue dashed lines. Autodock software was used to predict the interaction. […] Ten recombinant proteins of the DHp-CA region, each containing a substitution of a putative essential residue involved in c-di-GMP binding, were used in the MST assay to quantify the Kd value of RavS–c-di-GMP binding. fl-c-di-GMP was used in the MST assay. […] The reactions were terminated with 5× SDS loading buffer and the products were separated by 12% SDS-PAGE, exposed to a phosphor screen and analysed by Typhoon FLA7000. […]
(§2) The interaction between c-di-GMP nucleotides and various proteins was measured by using MST with a fluorescein-labelled c-di-GMP (2′-Fluo-AHC-c-di-GMP, abbreviated as fl-c-di-GMP; 2′-Fluo-AHC-c-di-AMP, fl-c-di-AMP; 2′-Fluo-AHC-cGMP, fl-cGMP; Biolog, Germany). […]

[3] = system: DHp-CA^S636A, DHp-CA^D638A and DHp-CA^L652A; test: as above; design: species or system Xanthomonas campestris pv. campestris; conditions: compared with positive control DHp-CA protein; fl-c-di-GMP used in the MST assay
Protocol: as §1, §2

Nc1nc2c(ncn2[C@@H]2O[C@@H]3COP(=O)(O)O[C@H]4[C@@H](O)[C@H](n5cnc6c(=O)[nH]c(N)nc65)O[C@@H]4COP(=O)(O)O[C@H]3[C@H]2O)c(=O)[nH]1 [c-di-GMP, Cyclic di-GMP]
Kd [1]: 14.5 µM | change in c-di-GMP binding affinity [2]: no significant change | fold increases in Kd values [3]: 1–2 fold
